Reference: patent US10409869B2, “(R)- and (S)-1-(3-(3-N,N-dimethylaminocarbonyl)phenoxyl-4-nitrophenyl)-1-ethyl-N,N'-bis (ethylene)phosphoramidate, compositions and methods for their use and preparation” (OBI Pharma, Inc., priority 2015, dated 2019)

How the values were obtained:
[1] = Body weight and toxicity in the orthotopic HepG2-GFP mouse model; assay type: in vivo, nude mice; details: intra-peritoneal, low (2.5 mg/kg) or high (5 mg/kg) dose
[2] = Serum chemistry in monkeys, 2 mg/kg 30-min IV infusion; assay type: in vivo, Cynomolgus monkeys
Description: (§1) TH 3423 and TH 3424 were tested in […] naïve monkeys (1 male and one female for each compound at 2 mg/kg) with 30-min intravenous infusion, TK sampling: on Day 1 and Day 15: 0.25, 0.5, 0.75, 1 and 2 hr post infusion initiation. Serum chemistry and hematology: pre-dose (Day 1), day 5, day 8 (pre-dose), day 15 (pre-dose), day 22 and day 28. Clinical observation: Daily during the study, total 35 days. Food consumption: Daily during the study, total 35 days. Bodyweight measurement: Twice weekly for five weeks.

[3] = Body weight in monkeys, 2 mg/kg 30-min IV infusion; assay type: in vivo, Cynomolgus monkeys
Description: as §1

## C[C@H](OP(=O)(N1CC1)N1CC1)c1ccc([N+](=O)[O-])c(Oc2cccc(C(=O)N(C)C)c2)c1 (single isomer, unassigned) [TH3424]
[1]
  toxicity to the experimental mice: no obvious toxicity
[1]; listed as TH2870-2
  toxicity to the experimental mice: no obvious acute toxicity
[2]; female, Day 1 (pre-dose)
  A/G: 1.9
  ALB: 46.1 g/L
  ALP: 134.2 U/L
  ALT: 61.6 U/L
  AST: 23.7 U/L
  BUN: 3.43 mM
  CK: 202 U/L
  CREA: 61 µM
  Ca: 2.51 mmol/L
  GLB: 24.1 g/L
  Glu: 3.34 mM
  K: 5.77 mmol/L
  Na: 143 mmol/L
  TBIL: 1.5 µM
  TC: 3.04 mM
  TG: 0.17 mmol/L
  TP: 70.2 g/L
  γ-GT: 47.3 U/L
[2]; female, Day 8 (pre-dose)
  A/G: 1.4
  ALB: 41.8 g/L
  ALP: 200.2 U/L
  ALT: 37.7 U/L
  AST: 43.1 U/L
  BUN: 5.63 mM
  CK: 190 U/L
  CREA: 88 µM
  Ca: 2.37 mmol/L
  GLB: 30.6 g/L
  Glu: 5.91 mM
  K: 4.33 mmol/L
  Na: 143 mmol/L
  TBIL: 0.8 µM
  TC: 2.91 mM
  TG: 0.63 mmol/L
  TP: 72.4 g/L
  γ-GT: 36.2 U/L
[2]; female, Day 15 (pre-dose)
  A/G: 1.6
  ALB: 38.5 g/L
  ALP: 151.5 U/L
  ALT: 31.9 U/L
  AST: 23.8 U/L
  BUN: 3.87 mM
  CK: 78 U/L
  CREA: 46 µM
  Ca: 2.2 mmol/L
  GLB: 23.8 g/L
  Glu: 2.8 mM
  K: 5.58 mmol/L
  Na: 132.59 mmol/L
  TBIL: 4.0 µM
  TC: 2.23 mM
  TG: 0.94 mmol/L
  TP: 62.3 g/L
  γ-GT: 34.2 U/L
[2]; male, Day 1 (pre-dose)
  A/G: 2.5
  ALB: 50.5 g/L
  ALP: 287.5 U/L
  ALT: 43.0 U/L
  AST: 40.2 U/L
  BUN: 4.89 mM
  CK: 221 U/L
  CREA: 91 µM
  Ca: 2.38 mmol/L
  GLB: 19.9 g/L
  Glu: 4.5 mM
  K: 4.31 mmol/L
  Na: 147 mmol/L
  TBIL: 2.1 µM
  TC: 3.22 mM
  TG: 0.38 mmol/L
  TP: 70.4 g/L
  γ-GT: 62.2 U/L
[2]; male, Day 8 (pre-dose)
  A/G: 2.0
  ALB: 43.3 g/L
  ALP: 225.2 U/L
  ALT: 31.2 U/L
  AST: 31.2 U/L
  BUN: 4.8 mM
  CK: 83 U/L
  CREA: 96 µM
  Ca: 2.33 mmol/L
  GLB: 21.8 g/L
  Glu: 4.15 mM
  K: 4.51 mmol/L
  Na: 147 mmol/L
  TBIL: 3.6 µM
  TC: 3.06 mM
  TG: 0.66 mmol/L
  TP: 65.1 g/L
  γ-GT: 44.9 U/L
[2]; male, Day 15 (pre-dose)
  A/G: 2.2
  ALB: 36.8 g/L
  ALP: 174.8 U/L
  ALT: 45.0 U/L
  AST: 73.5 U/L
  BUN: 9.66 mM
  CK: 172 U/L
  CREA: 58 µM
  Ca: 2.14 mmol/L
  GLB: 16.4 g/L
  Glu: 1.47 mM
  K: 6.05 mmol/L
  Na: 136.14 mmol/L
  TBIL: 2.1 µM
  TC: 1.44 mM
  TG: 0.41 mmol/L
  TP: 53.2 g/L
  γ-GT: 36.7 U/L
[3]; Day 1, male
  body weight: 3.40
[3]; Day 4, male
  body weight: 3.30
[3]; Day 8, Mean
  body weight: 3.20
